“Also recorded” adds a separate entry of the source. Structures can show the parent of a compound that is named as a salt. Where two headings read alike, the source gives them in different places.
How the values were obtained:
[1] = IV and PO pharmacokinetic studies of prodrug salts (Iab, Ibb, Icb) in the dog, with historical parent data; assay type: in vivo, beagle dogs
Procedure, shortened: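 Male beagle dogs (n=3), IV 5-min cephalic infusion (e.g. Iab 1.2 mg/kg, Icb 1.3 mg/kg free acid) or PO gavage after overnight fast (Iab 6.6 mg/kg free acid), crossover with two-week washout. Serial blood sampled predose to 24 h.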

[2] = Single-dose toxicokinetic and tolerability study of prodrugs in dogs; assay type: in vivo, dog
Procedure, shortened: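 Female dogs (two/group) received prodrug Iab orally once daily at 24, 90 or 240 mg/kg (free acid) as aqueous solution or dry-filled capsules, one-week washouts between doses. Ibb and Icb given to one dog/sex/group as capsules, then aqueous 25 mg/kg or capsules 46 or 125 mg/kg BID. Clinical signs, body weight, food intake and plasma toxicokinetics monitored.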

[3] = male, beagle, in vivo, iv, 1.28 mg/kg

| Compound | T1/2 ([1]; IV Ibb […] free acid (1.0 of IVb eqv.), mean ± SD, n = 3) [min] | prodrug detected in plasma after oral administration ([1]; LLQ = 5 nM) [µM] | half-life ([1]; male, beagle, plasma, after IV prodrug, analyte = label, read-out: t1/2 (hr), IV (converted)) [h] | AUC ([1]; male, beagle, plasma, po, 7 mg/kg, read-out: AUCtot) [µM·h] | Cmax ([1]; male, beagle, plasma, po, 7 mg/kg, read-out: Cmax) [nM] | Tmax ([1]; male, beagle, plasma, po, 7 mg/kg, read-out: Tmax) [min] | clearance ([1]; male, beagle, plasma, prodrug after IV administration, read-out: CLtot (mL/min/kg), IV) [mL/min/kg] | Vd ([1]; male, beagle, plasma, prodrug after IV administration, read-out: Vdss (L/kg), IV) [L/kg] | clinical signs, body weight and food consumption ([2]; dogs, oral prodrug) | emesis ([2]; dogs, oral prodrug) | AUC [1, 3] [µM·h] | MRT [1, 3] [min] | Vd [1, 3] [L/kg] | clearance [1, 3] [mL/min/kg] | half-life [1, 3] [h] | Emesis (footnote 4) ([2]; both, dog, in vivo) | Emesis (footnote 5) ([2]; both, dog, in vivo) | levels of prodrug detected in some plasma samples ([2]; both, dog, in vivo) [nM] |
| --- | --- | --- | --- | --- | --- | --- | --- | --- | --- | --- | --- | --- | --- | --- | --- | --- | --- | --- |
| O=C(C(=O)N1CCN(C(=O)c2ccccc2)CC1)c1cn(COP(=O)(O)O)c2c(-n3ccnn3)ncc(F)c12 [Ibb, [3-[(4-benzoylpiperazin-1-yl)(oxo)acetyl]-4-fluoro-7-(1H-1,2,3-triazol-1-yl)-1H-pyrrolo[2,3-c]pyridin-1-yl]methyl dihydrogen phosphate, L-lysine salt (1:1)] | 49.8 ± 34.8 | 0.034 | 0.83 | 0.059 | 34 ± 18 | 19.8 ± 8.4 | 27 | 0.35 | Other than emesis, there were no clinical signs observed, and there were no effects on body weight and food consumption | emesis (white, streaked with red that contained capsule remnants) was observed at about 0.5-1.25 hours after dosing in all dogs given ≧92 mg/kg QD; also recorded: emesis (white or brown) was observed within 2 hours after dosing in all dogs given ≧46 mg/kg BID | – | – | – | – | – | – | – | – |
| COc1cnc(-n2cnc(C)n2)c2c1c(C(=O)C(=O)N1CCN(C(=O)c3ccccc3)CC1)cn2COP(=O)(O)O [Icb, [3-[(4-benzoylpiperazin-1-yl)(oxo)acetyl]-4-methoxy-7-(3-methyl-1H-1,2,4-triazol-1-yl)-1H-pyrrolo[2,3-c]pyridin-1-yl]methyl dihydrogen phosphate, 2-amino-2-(hydroxymethyl)propane-1,3-diol salt (1:1)] | – | – | – | – | – | – | – | – | – | – | 0.61 ± 0.2 | 8.4 ± 1.26 | 0.5 ± 0.088 | 64 ± 18 | 0.25 ± 0.1 | ^4Emesis observed within 2 hours of dosing with capsule remnant present | ^5Emesis observed within 2 hours of dosing with no capsule remnant | ≤ 100 |

— patent US20150315218A1, “SALTS OF PRODRUGS OF PIPERAZINE AND SUBSTITUTED PIPERIDINE ANTIVIRAL AGENTS” (Bristol-Myers Squibb Company, priority 2004, published 2015)
